Assay [1] deals with Q2 150-206 (RNA, G4) GAGACUAAUGAACUCUUCCGGGAUGGGGUAAACUGGGGUCGCAUUGUGGCCUUUUUCUCCUUC
Put plainly: fluorescence enhancement. The conditions noted are these: 100 mM KCl; 10 mM Tris pH 7.0, 25 °C, 10 µM RNA, 1 µM NMM.

Assay [2] concerns XS 38-206 (RNA, mRNA element) GAGACUGAGGGAGGCAGGCGACGAGUUUGAACUGCGGUACCGGCGGGCAUUCAGUGACCUGACAUCCCAGCUCCACAUCACCCCAGGGACAGCAUAUCAGAGCUUUGAACAGGUAGUGAAUGAACUCUUCCGGGAUGGGGUAAACUGGGGUCGCAUUGUGGCCUUUUUCUCCUUC
Put plainly: fluorescence enhancement. The conditions noted are these: 100 mM KCl; 10 mM Tris pH 7.0, 25 °C, 10 µM RNA, 1 µM NMM.

`CCc1c(C)c2cc3nc(cc4nc(cc5c(CC)c(C)c(cc1[nH]2)n5C)C(C)=C4CCC(=O)O)C(CCC(=O)O)=C3C`: the binding result in assay [1] and in assay [2] was “yes” throughout.

The values above are taken from publication PMC9428248 (2022).
